Measurements taken from the supplement of paper PMC10307832.

What was measured:
Assay in all cases: relative viability (nuclei count vs DMSO), 5 days (fraction); higher = more cells survive
[1] = compound: C1CN(CCN1)C2=CC=C(C=C2)C3=CN4C(=C(C=N4)C5=CC=NC6=CC=CC=C56)N=C3 [DM3189] + NC(=O)Nc1cc(-c2cccc(F)c2)sc1C(=O)N[C@H]1CCCNC1 [AZD7762] (partner 0.2 µM)
Outline: (§1)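 A single step with final 0.05% Triton X-100, 1% formaldehyde and 1 ug/ml Hoechst fixed the cells and stained nuclei 5 days after treatment. Lung cancer cell lines in 1536-well plates had been treated by pin tool the day after seeding with one drug alone or a fixed anchor-drug dose plus five library-drug doses (not always all listed) in √10 steps, and nuclei were counted on 4× images. Relative viability is the ratio of nuclei in treated wells to nuclei in vehicle wells, taken as the median of duplicate plates.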

[2] = compound: C1CN(CCN1)C2=CC=C(C=C2)C3=CN4C(=C(C=N4)C5=CC=NC6=CC=CC=C56)N=C3 [DM3189] + CC1(C)CCC(c2ccc(Cl)cc2)=C(CN2CCN(c3ccc(C(=O)NS(=O)(=O)c4ccc(N[C@H](CCN5CCOCC5)CSc5ccccc5)c(S(=O)(=O)C(F)(F)F)c4)cc3)CC2)C1 [Navitoclax] (partner 0.5 µM)
Outline: as §1

[3] = compound: C1CN(CCN1)C2=CC=C(C=C2)C3=CN4C(=C(C=N4)C5=CC=NC6=CC=CC=C56)N=C3 [DM3189] + CC(=O)Nc1cccc(-n2c(=O)n(C3CC3)c(=O)c3c(Nc4ccc(I)cc4F)n(C)c(=O)c(C)c32)c1 [Trametinib] (partner 0.02 µM)
Outline: as §1

[4] = compound: C1CN(CCN1)C2=CC=C(C=C2)C3=CN4C(=C(C=N4)C5=CC=NC6=CC=CC=C56)N=C3 [DM3189] + Nc1ncn([C@H]2C[C@H](O)[C@@H](CO)O2)c(=O)n1 [Decitabine] (partner 2 µM)
Outline: as §1

[5] = compound: C1CN(CCN1)C2=CC=C(C=C2)C3=CN4C(=C(C=N4)C5=CC=NC6=CC=CC=C56)N=C3 [DM3189] + CCNC(=O)c1noc(-c2cc(C(C)C)c(O)cc2O)c1-c1ccc(CN2CCOCC2)cc1 [Luminespib] (partner 0.01 µM)
Outline: as §1

Row | Cell Line | relative viability ([1]; first compound 0.08 µM) | relative viability ([1]; first compound 0.253 µM) | relative viability ([1]; first compound 0.8 µM) | relative viability ([1]; first compound 2.53 µM) | relative viability ([2]; first compound 0.08 µM) | relative viability ([2]; first compound 0.253 µM) | relative viability ([2]; first compound 0.8 µM) | relative viability ([2]; first compound 2.53 µM) | relative viability ([3]; first compound 0.08 µM) | relative viability ([3]; first compound 0.253 µM) | relative viability ([3]; first compound 0.8 µM) | relative viability ([3]; first compound 2.53 µM) | relative viability ([4]; first compound 0.08 µM) | relative viability ([4]; first compound 0.253 µM) | relative viability ([4]; first compound 0.8 µM) | relative viability ([4]; first compound 2.53 µM) | relative viability ([5]; first compound 0.08 µM) | relative viability ([5]; first compound 0.253 µM) | relative viability ([5]; first compound 0.8 µM) | relative viability ([5]; first compound 2.53 µM)
1 | NCI-H1437 | 1.14 | 1.15 | 0.969 | 1 | 0.994 | 1.1 | 1.06 | 1.05 | 0.63 | 0.577 | 0.65 | 0.696 | 0.6 | 0.542 | 0.554 | 0.571 | 1.15 | 1.1 | 1.1 | 1.1
2 | NCI-H1651 | 0.536 | 0.457 | 0.443 | 0.444 | 1.17 | 1.13 | 1.13 | 0.928 | 0.867 | 0.793 | 0.813 | 0.937 | 0.703 | 0.646 | 0.626 | 0.67 | 0.811 | 0.836 | 0.779 | 1.01
3 | NCI-H1666 | 1.11 | 0.812 | 0.878 | 0.941 | 1.11 | 1.09 | 0.895 | 1.17 | 1.03 | 0.951 | 0.863 |  | 0.882 | 0.688 | 0.748 | 0.83 | 1.15 | 0.983 | 1.05 | 1.07
4 | NCI-H1734 | 0.6 | 0.573 | 0.511 | 0.383 | 0.903 | 0.81 | 0.774 | 0.844 | 0.651 | 0.623 | 0.652 | 0.685 | 0.528 | 0.506 | 0.49 | 0.524 | 0.202 | 0.226 | 0.207 | 0.199
5 | NCI-H1755 | 0.482 | 0.455 | 0.615 | 0.372 | 0.926 | 0.904 | 0.701 | 0.965 | 0.786 | 0.801 | 0.725 | 0.836 | 0.739 | 0.694 | 0.729 | 0.671 | 0.384 | 0.476 | 0.425 | 0.419
6 | NCI-H1792 | 0.796 | 0.65 | 0.593 | 0.616 | 0.584 | 0.601 | 0.443 | 0.23 | 0.538 | 0.482 | 0.438 | 0.62 | 0.529 | 0.519 | 0.397 | 0.579 | 0.416 | 0.552 | 0.445 | 0.328
7 | NCI-H1793 | 0.524 | 0.519 | 0.273 | 0.347 | 0.422 | 0.396 | 0.421 | 0.478 | 0.507 | 0.603 | 0.532 | 0.742 | 0.55 | 0.458 | 0.461 | 0.541 | 0.184 | 0.196 | 0.171 | 0.174
8 | NCI-H1915 | 0.708 | 0.639 | 0.521 | 0.637 | 0.772 | 0.777 | 0.729 | 0.857 | 0.325 | 0.292 | 0.305 | 0.307 | 0.261 | 0.253 | 0.257 | 0.257 | 0.697 | 0.817 | 0.606 | 0.485
9 | NCI-H1944 | 0.547 | 0.55 | 0.576 | 0.446 | 1.07 | 1.03 |  | 1.15 | 0.463 | 0.422 | 0.42 | 0.413 | 0.42 | 0.467 | 0.384 | 0.455 | 0.813 | 0.673 |  | 0.684
10 | NCI-H1975 | 0.757 | 0.682 | 0.522 | 0.625 | 1.16 | 1.08 | 0.858 | 0.821 | 0.37 | 0.367 | 0.316 | 0.299 | 0.374 | 0.41 | 0.361 | 0.336 | 0.302 | 0.254 | 0.162 | 0.263
11 | NCI-H1993 | 0.824 | 0.776 | 0.653 | 0.643 |  | 0.883 | 0.646 | 0.999 | 0.504 | 0.501 | 0.641 | 0.486 | 0.579 | 0.654 | 0.571 | 0.499 | 0.785 | 0.705 | 0.712 | 0.885
12 | NCI-H2085 | 0.994 | 1.06 | 0.965 | 1.03 | 1.2 | 1.16 | 1.19 | 1.11 | 0.521 | 0.613 | 0.598 | 0.668 | 0.504 | 0.565 | 0.564 | 0.591 | 0.359 | 0.389 | 0.478 | 0.951
13 | NCI-H2087 | 1.42 | 1.23 | 1.38 | 1.1 | 1.09 | 0.933 | 1.04 | 1.08 | 0.24 | 0.17 | 0.228 | 0.219 | 0.269 | 0.249 | 0.284 | 0.275 | 0.187 | 0.145 | 0.139 | 0.176
14 | NCI-H2126 | 1.05 | 1.07 | 0.968 | 1.01 | 0.827 | 0.873 | 0.756 | 0.861 | 0.609 | 0.534 | 0.509 | 0.524 | 0.558 | 0.547 | 0.53 | 0.61 | 1.13 | 0.875 | 0.913 | 0.889
15 | NCI-H2170 | 0.933 | 0.884 | 0.875 | 0.652 | 0.637 | 0.541 | 0.541 | 0.711 | 1.09 | 0.96 | 0.835 | 0.825 | 0.494 | 0.484 | 0.466 | 0.44 | 0.939 | 0.836 | 0.762 | 0.764
16 | NCI-H2347 | 0.726 | 0.779 | 0.723 | 0.733 | 0.861 | 0.819 | 0.743 | 0.763 | 0.28 | 0.262 | 0.276 | 0.31 | 0.591 | 0.622 | 0.576 | 0.668 | 0.671 | 0.504 | 0.565 | 0.485
17 | NCI-H2405 | 0.727 | 0.665 | 0.645 | 0.704 | 0.758 | 0.802 | 0.873 | 0.89 | 0.669 | 0.615 | 0.614 | 0.579 | 0.744 | 0.744 | 0.691 | 0.756 | 0.704 | 0.754 | 0.646 | 0.491
18 | NCI-H3122 | 0.978 | 0.964 | 0.912 | 0.816 | 0.97 | 0.968 | 0.957 | 0.824 | 0.19 | 0.205 | 0.181 | 0.217 | 0.362 | 0.353 | 0.372 | 0.367 | 0.0997 | 0.103 | 0.072 | 0.0922
19 | PC-3 [JPC-3] | 0.957 | 0.884 | 0.814 | 0.791 | 0.826 | 0.83 | 0.859 | 0.892 | 0.75 | 0.776 | 0.722 | 0.788 | 0.848 | 0.802 | 0.797 | 0.797 | 0.725 | 0.705 | 0.694 | 0.512
20 | PC-14 | 0.569 | 0.249 | 0.263 | 0.26 | 1.04 | 1.03 | 1 | 1.08 | 0.732 | 0.877 | 0.635 | 0.849 | 0.303 | 0.237 | 0.21 | 0.253 | 0.161 | 0.154 | 0.152 | 0.154
21 | RERF-LC-KJ | 1.51 | 1.11 | 1 | 0.964 | 0.997 | 1.35 | 0.81 | 1.09 | 1.03 | 0.95 | 0.927 | 0.986 | 0.754 | 0.615 | 0.757 | 0.618 | 1.37 | 1.3 | 1.46 | 1.19
